The values that follow come from EPA's ToxValDB 9.5.

As usually defined, the NOAEL is the highest tested level that showed no adverse finding. Usually LOAEL stands for the lowest dose or exposure tested at which an adverse effect was seen. The LD50 is the dose expected to kill half of the subjects tested. A lower LD50 goes with greater toxicity.

Series [1] has as its system Mus musculus. The note with it: uterotrophic, Active.
The subject of series [2] is Rattus norvegicus. The note with it: for LEL: uterotrophic, Active; for NOEL / LOEL: Hershberger, gavage.
In series [3] the test system is Rattus norvegicus. The note with it: oral.
In series [4] the test system is Rattus norvegicus. Particulars: repeat dose other; oral.
Series [5] relates to Canidae. Particulars: chronic, oral, Dog Other.
The test system of series [6] is Canidae. The note with it: chronic, oral, M/F, Dog Other.
For series [7], the system named is Oryctolagus sp. The note with it: acute; dermal.
For series [8], the system named is Rattus norvegicus. Particulars: oral; for LD50: acute.
[9] abbreviates: duration: 3 days, injection, subcutaneous.
Where [10] appears, read: duration: 1 days, injection, subcutaneous.
The mark [11] stands for this setting: duration: 2 days, injection, subcutaneous.
Where [12] appears, read: duration: 7 days, oral, Sprague-Dawley, active + Antiandrogenic + anti-androgenic + reduced SV and caudal epididymal wt / PPS delayed.
The mark [13] stands for this setting: duration: 10 days, oral, Wistar, active + Antiandrogenic + anti-androgenic + reduced SV and caudal epididymal wt / PPS delayed.
Where [14] appears, read: duration: 10 days, oral, Sprague-Dawley, active + Negative + Antiandrogenic + anti-androgenic + DP and LABC decreased in high dose.
Setting [15] is: duration: 12 months, diet, increase in methemoglobin + Increased liver weights.
The mark [16] stands for this setting: Decreased body weight gain, altered serum chemistry parameters (decreased serum cholesterol, total protein, and serum albumin and globulin ….
The mark [17] stands for this setting: duration: 2 years, diet, increased serum alkaline phosphatase and liver weight, and hepatic lesions.
Where [18] appears, read: subchronic, duration: 3 months, diet, BOR/WISW (SPF Cpb).
The mark [19] stands for this setting: duration: 10 days, oral, Sprague-Dawley, active + Negative + Antiandrogenic + anti-androgenic + significant increase in liver wt at 100 / decrease in AST wt and serum Testosterone ….
The mark [20] stands for this setting: duration: 2 years, diet, increased hemosiderin deposition, serum alkaline phosphatase, and liver weight (females).

The structures appear in SMILES notation. Where “and” joins values, the source holds several entries; their conditions need not be identical. Identical values can stand only once. Some results are limits rather than exact numbers.

Consider `O=C1C2(Cl)C3(Cl)C4(Cl)C(Cl)(Cl)C5(Cl)C3(Cl)C1(Cl)C5(Cl)C24Cl` (stereo not given) [Kepone], for which the LEL was 1 mg/kg-day in series [1] (setting [9]); 10 mg/kg-day in series [2] (setting [10]); 0.2 mg/day in series [2] (setting [11]); 15 mg/kg-day and 20 mg/kg-day and 30 mg/kg-day in series [2] (setting [9]). Besides, the NOAEL in series [3] (chronic, duration: 2 years, diet, M/F, Wistar, renal) came to 0.089 mg/kg-day; in series [3] (short-term, duration: 10 days, gavage, M, Fischer 344, neurological), 1.25 mg/kg-day; in series [3] (subchronic, duration: 90 days, diet, M, Sprague-Dawley, neurological, reproductive), 0.26 mg/kg-day; in series [4], 0.08 mg/kg-day. The same compound came in with an LOAEL in series [4] of 0.4 mg/kg-day.

`CCNc1nc(Cl)nc(NC(C)(C)C#N)n1` [Cyanazine]: the NOEL in series [5] (duration: 1 years, diet, Blood: Altered clinical chemistry parameters + Blood: Increased platelet count + Whole body: Decreased weight) was 0.625 mg/kg-day.

With `C#CC(C)(C)NC(=O)c1cc(Cl)cc(Cl)c1` [Propyzamide], the NOEL came to 7.5 mg/kg-day in series [5] (duration: 2 years, diet, None Observed); 40 mg/kg-day in series [2] (duration: 10 days, oral, Sprague-Dawley, active + Negative + Antiandrogenic + anti-androgenic + two studies / first one doses were high but effects observed on AST wt and delayed …); 7.5 mg/kg-day in series [6] (duration: 2 years, diet, no effects).

Take `CON(C)C(=O)Nc1ccc(Cl)c(Cl)c1` [Linuron]: in series [5] (duration: 2 years, diet, Blood: Hematological effects), the LOAEL stood at 0.625 mg/kg-day. For the same compound, the LOEL in series [2] (setting [12]) is 40 mg/kg-day and 100 mg/kg-day; in series [2] (setting [13]), 40 mg/kg-day and 100 mg/kg-day. The NOEL was 20 mg/kg-day in series [2] (setting [12]); 20 mg/kg-day in series [2] (duration: 10 days, oral, Sprague-Dawley, inactive + Negative + anti-androgenic + reduced SV and caudal epididymal wt / PPS delayed); 20 mg/kg-day and 10 mg/kg-day in series [2] (setting [13]); 20 mg/kg-day in series [2] (duration: 10 days, oral, Wistar, inactive + Negative + anti-androgenic + reduced SV and caudal epididymal wt / PPS delayed); 20 mg/kg-day and 30 mg/kg-day and 10 mg/kg-day in series [2] (duration: 10 days, oral, wistar, active + Antiandrogenic + anti-androgenic + reduced SV and caudal epididymal wt / PPS delayed). In series [6] (duration: 2 years, diet, abnormal blood pigment), this compound yielded an LEL of 0.625 mg/kg-day.

With `CCCN(CCC)c1c([N+](=O)[O-])cc(C(F)(F)F)cc1[N+](=O)[O-]` [Trifluralin], the NOEL is 0.75 mg/kg-day in series [5] (duration: 12 months, diet, Blood: Methemoglobinemia + Liver: Increased weight); 75 mg/kg-day and 150 mg/kg-day in series [2] (setting [14]); 0.75 mg/kg-day in series [6] (setting [15]). In addition, the LOEL in series [2] (setting [14]) is 250 mg/kg-day and 450 mg/kg-day. The LEL in series [6] (setting [15]) is 3.75 mg/kg-day.

For `O=C1c2ccccc2C(=O)N1SC(Cl)(Cl)Cl` [Folpet], the NOEL turned out to be 10 mg/kg-day in series [5] (duration: 1 years, capsule, Blood: Altered chemistry + Whole body: Altered weight gain); 200 mg/kg-day in series [2] (duration: 10 days, oral, Sprague-Dawley, inactive + Negative + Negative + neither + decrease in LABC and epididymis at 400 and 800 / decrease in liver and body wt (8% at 200 / 14…); 10 mg/kg-day in series [6] (setting [16]). Further, the LEL in series [6] (setting [16]) turned out to be 60 mg/kg-day.

As to `CCC(CC)Nc1c([N+](=O)[O-])cc(C)c(C)c1[N+](=O)[O-]` [Pendimethalin], the NOEL turned out to be 12.5 mg/kg-day in series [5] (duration: 2 years, capsule, Liver: Effects) and 12.5 mg/kg-day in series [6] (setting [17]). The LEL in series [2] (duration: 3 days, oral) came to 300 mg/kg-day; in series [6] (setting [17]), 50 mg/kg-day.

`CC(C)(C)CC(C)(C)c1ccc(O)cc1` [4-(1,1,3,3-Tetramethylbutyl)phenol]: the LEL was 50 mg/kg-day in series [1] (duration: 9 days, injection, subcutaneous); 200 mg/kg-day and 600 mg/kg-day in series [2] (setting [10]); 50 mg/kg-day in series [2] (setting [11]); 25 mg/kg-day in series [2] (duration: 14 days, injection, subcutaneous). Moreover, the LD50 in series [7] is over 2000 mg/kg; in series [8], 2200 mg/kg; in series [8] (Sprague-Dawley), over 2000 mg/kg. The no observed adverse effect level (NOAEL) was at least 2000 ppm in series [8] (reproduction developmental, diet, Sprague-Dawley); 200 ppm in series [8] (reproduction developmental, diet, Sprague-Dawley, generation: F0); 200 ppm in series [8] (reproduction developmental, diet, Sprague-Dawley, generation: F1); 2.88 mg/kg-day in series [8] (setting [18]). Also, the lowest-observed-adverse-effect level (LOAEL) in series [8] (setting [18]) came out at 28.8 mg/kg-day.

In turn, `CCCCN(CC)c1c([N+](=O)[O-])cc(C(F)(F)F)cc1[N+](=O)[O-]` [Benfluralin] showed an NOAEL in series [5] (duration: 1 years, diet, Erythrocytes: Decreased count) of 25 mg/kg-day. In series [2] (setting [19]), the LOEL is 400 mg/kg-day and 750 mg/kg-day; the NOEL is 100 mg/kg-day and 250 mg/kg-day. For the same compound, in series [6] (reduced erythrocyte counts), the lowest observed adverse effect level (LOAEL) is 125 mg/kg-day and the NOAEL is 25 mg/kg-day.

With `CC(C)N(C(=O)SCC(Cl)=C(Cl)Cl)C(C)C` [Tri-allate], in series [5] (duration: 24 months, diet, Liver: Effects + Spleen: Effects), the no observed adverse effect level (NOAEL) turned out to be 1.27 mg/kg-day. In series [6] (setting [20]), this compound showed an LOAEL of 4.25 mg/kg-day and a no observed adverse effect level (NOAEL) of 1.27 mg/kg-day.

Regarding `C#C[C@]1(O)CC[C@H]2[C@@H]3CCc4cc(OC)ccc4[C@H]3CC[C@@]21C` [Mestranol], the LEL in series [1] (setting [9]) is 0.5 µg/0.1 mL; in series [2] (duration: 3 days, injection, intraperitoneal), 0.001 mg/day; in series [2] (duration: 3 days, oral), 0.01 mg/kg-day; in series [2] (duration: 14 days, oral), 0.001 mg/day. The “LEL (fractional dose of pill)” value in series [1] (duration: 3 days, oral) amounted to 0.001.

Take `O=C(c1ccc(O)cc1O)c1ccc(O)cc1O` [2,2',4,4'-Tetrahydroxybenzophenone]: the LEL in series [1] (duration: 7 days, injection, subcutaneous) was 300 mg/kg-day; in series [1] (duration: 7 days, oral) it was 1000 mg/kg-day; in series [2] (setting [9]), 100 mg/kg-day and 200 mg/kg-day and 230 mg/kg-day; in series [2] (duration: 5 days, oral), 100 mg/kg-day and 250 mg/kg-day; in series [2] (duration: 90 days, oral, diet), 185 mg/kg-day.
